# Laboratory results from PMC11697113, “The Hsc70 system maintains the synaptic SNARE protein SNAP-25 in an assembly-competent state and delays its aggregation [drawing 1]” (The Journal of Biological Chemistry, 2024).
# How the values were obtained:
# [1] = system: SNARE complex with syntaxin and synaptobrevin; assay: SDS-resistant SNARE complex formation (SDS-PAGE); format: biochemical; settings: without Hsc70, mixed with syntaxin and synaptobrevin, 1 M NaCl, 4 °C
# Experimental: We took aliquots of SNAP-25 at different time points of the aggregation reaction (at 0 h, in lag phase and at 64 h in the log or saturation phase, Fig. 2A) and mixed them with the SNARE motifs of syntaxin and synaptobrevin to allow the formation of the SNARE complex.
# Figure 6 Hsc70 facilitates incorporation of SNAP-25 into the SNARE complex in vitro. SDS-PAGE of SNAP-25 taken from the aggregation reactions (Fig. 2) at 0 h and 64 h after the initiation, without (left) and with Hsc70 (right), and mixed with syntaxin and synaptobrevin for the time indicated below each SDS-PAGE. SNAP-25 is expressed and purified from E. coli; a minor amount of the bacterial Hsp70 homolog DnaK (∼70 kDa) may copurify with SNAP-25, explaining the presence of higher molecular weight bands, with its proteolysis potentially occurring during ∼64-h SNAP-25 aggregation reactions. For synaptobrevin, we attribute the higher molecular weight bands to incomplete cleavage of GST-tagged synaptobrevin.
# The SNARE motifs were mixed in an equimolar ratio in the following order: synaptobrevin-2 (29–93), syntaxin-1A (191–253), and SNAP-25 taken from the aggregation reaction, in the presence of 1 M NaCl. The assembly reaction was incubated at 4 °C overnight while rotating. The SNARE motifs were concentrated using a 30-kDa molecular weight cutoff Amicon centrifugation filters and run on 4 to 20% gradient SDS-PAGE.
# SNAP-25 [2] = assay: Far-UV CD; format: physicochemical; settings: far-UV CD 200–250 nm, 22 °C (Fig. S1)
# Experimental: SNAP-25 has four native cysteines that are palmitoylated upon interaction with the membrane. […] For all of our studies, the SNAP-25 CS mutant was used unless otherwise mentioned.
# The far-UV CD spectra (200–250 nm) were recorded on a Jasco J-1500 Circular Dichroism Spectrophotometer at 22 °C. The SNAP-25 WT, SNAP-25, and mixture of SNAP-25 and Hsc70 were taken in a 1 mm path length quartz cuvette. Figures show the average of ten scans where the buffer baselines were subtracted. Data were plotted using software using the Origin (Pro) program (OriginLab Corp).
# Hsc70 = target: T1, Hsc70 (Homo sapiens, UniProt P11142); assay: Native PAGE / Western blot of SNAP-25-Hsc70 complex; format: binding; settings: SNAP-25 10 μM, Hsc70 2 μM, anti-Hsc70 and anti-His Western blot
# T1 construct: 6X His-tag (TEV-cleavable) (cleaved yes); made in house; host or cells: E. coli Rosetta (DE3)
# T1 sequence (P11142 whole entry): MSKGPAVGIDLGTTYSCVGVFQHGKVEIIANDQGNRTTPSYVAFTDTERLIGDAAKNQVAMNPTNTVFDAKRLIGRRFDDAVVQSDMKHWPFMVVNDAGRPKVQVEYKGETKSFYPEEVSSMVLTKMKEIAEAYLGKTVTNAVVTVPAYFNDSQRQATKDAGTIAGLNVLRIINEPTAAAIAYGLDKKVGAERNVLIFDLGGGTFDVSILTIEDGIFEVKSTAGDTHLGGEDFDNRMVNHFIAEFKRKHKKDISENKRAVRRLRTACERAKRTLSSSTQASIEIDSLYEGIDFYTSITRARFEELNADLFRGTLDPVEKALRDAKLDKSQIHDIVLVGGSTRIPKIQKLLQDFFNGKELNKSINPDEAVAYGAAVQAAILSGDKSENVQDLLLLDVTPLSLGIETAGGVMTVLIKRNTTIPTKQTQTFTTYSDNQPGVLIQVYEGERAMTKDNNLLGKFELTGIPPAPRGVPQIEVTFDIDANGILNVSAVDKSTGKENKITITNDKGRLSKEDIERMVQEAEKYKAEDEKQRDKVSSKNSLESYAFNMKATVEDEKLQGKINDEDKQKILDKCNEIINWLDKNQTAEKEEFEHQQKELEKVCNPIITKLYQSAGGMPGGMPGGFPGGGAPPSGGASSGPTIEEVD
# Experimental: Figure 3 Hsc70 forms complexes with SNAP-25.A, native PAGE of SNAP-25 (10 μM) in the presence and absence of Hsc70 (2 μM). The difference in signal intensity of His-SNAP25 probed with antibody is likely due to altered epitope exposure upon formation of the SNAP-25-Hsc70 complex. B, binding of SNAP-25 (black), SNAP-25 SNN (SNNFR, orange), and SNC (SNCFR, green)) fragments to Hsc70 by competition followed by fluorescence anisotropy. Increasing concentrations of the competitors were added to a complex of Hsc70 (5 μM) and FITC-p5 peptide (50 nM). Error bars represent SDs from three independent experiments.
# Precast native PAGE gels (Bio-Rad, 4–20%) were used to separate proteins based on their conformation and charge. SNAP-25 (10 μM), Hsc70 (2 μM) and a mix of both samples were mixed with a nondenaturing loading buffer and directly loaded onto the gel without heating. Electrophoresis was carried out in Tris-glycine running buffer at 180V for approximately 1 h until the dye front reached the bottom of the gel. Gels were stained with Coomassie Brilliant Blue R-250 (Sigma-Aldrich) and destained in a methanol-acetic acid solution until clear bands were visible.
# SNAP-25 [3] = assay: SNAP-25 aggregation kinetics by optical density; format: biochemical; settings: SNAP-25 (CS mutant) 50 μM alone, 37 °C, shaking 300 rpm, OD 360 nm, 20 mM phosphate buffer pH 7.4, 100 μM MgCl2, 100 mM KCl
# Experimental: To test our hypothesis that Hsc70 inhibits SNAP-25 aggregation, we monitored the aggregation kinetics of recombinantly expressed SNAP-25 in the absence and presence of Hsc70 by following optical density at 360 nm (Fig. 2). […] This lag time was elongated to ∼65 h in the presence of Hsc70. In neurons, Hsc70 works in collaboration with its co-chaperone CSPα. […] (Fig. S2A). Apg2 is a member of the Hsp110 family, which is known to suppress protein aggregation ([36]). […] (Fig. S2B).
# Figure 2 Hsc70 delays the aggregation of SNAP-25. Aggregation kinetics of SNAP-25 (50 μM) at 37 °C. Optical density of SNAP-25 was recorded at 360 nm in the absence (black) and in the presence of Hsc70 (5 μM, red), and Hsc70+CSPαJ (5 μM each, blue).
# Aggregation of SNAP-25 at 50 μM was followed by measuring the A360 in a 96-well plate using a BioTek plate reader (BioTek), at 37 °C with shaking at 300 rpm, in the absence and presence of Hsc70 and CSPαJ at 5 μM each, and Apg2 at 0.5 μM. The aggregation buffer included 20 mM phosphate buffer pH 7.4, 100 μM MgCl2, and 100 mM KCl, and an ATP-experiment was carried out using regeneration system (5 mM 2-phosphoenolpyruvate, 0.05 mg/ml pyruvate kinase, and 5 mM ATP), as described previously ([51]).
# Figure SI 2. Apg2 enhances the effect of Hsc70 on SNAP-25. (A) Aggregation kinetics of SNAP-25 (50 μM) at 37 °C. OD600 of SNAP-25 was recorded in the absence (black) and in the presence of Hsc70, Hsc70+CSPa-J (blue) and Hsc70+CSPa-J+Apg2 (turquoise). […]
# concentrations are SNAP-25 (50 μM), Hsc70 (5 μM), CSPa-J (5 μM) and Apg2 (0.5 μM).
# (B) Aggregation kinetics of SNAP-25 (50 μM) at 37 °C. OD600 of SNAP-25 was recorded in the absence (black) and in the presence of Apg2 (blue). […]
# SNAP-25 [4] = settings: also Fig. S1; cited from earlier work
# Source text: SNAP-25 has four native cysteines that are palmitoylated upon interaction with the membrane. […] For all of our studies, the SNAP-25 CS mutant was used unless otherwise mentioned. We assessed formation of the Hsc70-SNAP-25 complex by CD and found no significant conformational ...
substance,measurement,setting,value
synaptosomal-associated 25 kDa protein [SNAP-25],SNARE complex formation by SNAP-25 taken at 0 h of aggregation,[1],forms SDS-resistant SNARE complexes
same,SNARE complex formation by SNAP-25 taken at 64 h of aggregation,[1],unable to form the SNARE complexes
same,conformational change upon Hsc70-SNAP-25 interaction,SNAP-25 [2],no significant conformational change
same,complex formation of His-SNAP-25 with Hsc70,Hsc70,a complex can be seen
same,lag phase of SNAP-25 aggregation,SNAP-25 [3],~38 h
same,secondary structure by CD,SNAP-25 [4],disordered with nascent helical tendencies
